Measurements published in patent US20050063956A1, “Method and device for attracting insects” (Colorado State University Research Foundation, priority 1998, published 2005).

What was measured:
[1] = tested on: Reticulitermes flavipes; assay: T-tube choice-test behavioral bioassay with CO2; conditions: in vivo
Protocol: (§1) Behavioral bioassay apparatus: The choice-test bioassay apparatus was constructed from a glass T-tube (5 mm inside diameter, 5 mm stem, with each branch 4.5 cm long). Each branch of the ‘T’ was bent downward (2.5 cm from the junction of the ‘T’) at a 45° angle to form a pitfall trap. A 5 mm NMR cap (cat. no. 100-0050, Drummond Scientific, Broomall, Pa.) with a 1 mm pinhole in it was firmly pushed over the end of each bent branch. A 25 cm length of Teflon tubing (0.8 mm inside diameter) was inserted 3 mm into the hole in each NMR cap and the other end of the tubing was connected to a 35 ml polyethylene syringe (cat. no. 106-0490, Sherwood Medical, St. Louis, Mo.). The two 35-ml syringes were connected to a syringe pump which was adjusted to provide an airflow of 1 ml per min into each choice arm of the bioassay apparatus.
(§2) Mixtures of CO2 and ambient air were tested to determine the termite response to a range of CO2 concentrations. […] The CO2 concentration of the syringes was determined by using GC-MS-SIM analysis (see below) before each bioassay. […]
(§3) Procedure: For bioassays, termite workers were collected from plastic tubs by using a camel's hair brush and were placed into a holding container constructed from a 3 cm length of Teflon tubing (8 mm inside diameter). […] Bioassays were conducted for 15 min, after which the number of termites in each pitfall was recorded. […]

[2] = tested on: Reticulitermes virginicus; assay: T-tube choice-test behavioral bioassay with CO2; conditions: in vivo
Protocol: as §1, §2, §3

Compound: O=C=O [CO2, carbon dioxide]
- CO2 concentration of best attraction [1]: 10 mmol per mol
- CO2 concentration of best attraction [2]: 10 mmol per mol
